# Data reported in patent US20240132484A1, “BROAD SPECTRUM ANTIVIRAL COMPOUNDS TARGETING THE SKI COMPLEX” (priority 2020, published 2024).
# Several values for one entry are separate records, joined by “and”; a condition that tells them apart may be missing. Equal entries are not always repeated. Entries after “also recorded” stand apart in the source; their conditions may differ.
# Key:
# [1] = system: Ebola virus Makona strain (EBOV); assay: microbe, parasite or virus in culture; format: cell-based; conditions: Zaire ebolavirus, Huh-7, 48 h, read-out: IC50 against EBOV
# [2] = system: Marburg virus Angola strain (MARV); assay: organism not typed; format: cell-based; conditions: Huh-7, 48 h, read-out: IC50 against MARV
# A549 cells = conditions: antiviral concentrations, 24 h
# IAV NS1 protein = format: cell-based, influenza A virus
# Influenza virus = assay: organism not typed; format: cell-based, influenza A virus; conditions: for time of addition: inhibition of IAV when drug added 2 h after infection: +2 h versus -2 h and 0 h; for IC50: A549, 24 h, read-out: IC50 against IAV; for antiviral activity against IAV infection: screening, A549 cells
# Huh7 cells = conditions: antiviral concentrations, 24 h
# IAV NS1 mRNA = format: cell-based, influenza A virus
# MERS-CoV = assay: microbe, parasite or virus in culture; format: cell-based; conditions: Middle East respiratory syndrome-related coronavirus, Huh-7, 24 h, read-out: IC50 against MERS-CoV
# IAV RNA = assay: Multi-segment RT-PCR (M-RTPCR) of IAV segments in A549 cells; format: cell-based, influenza A virus
# SARS-CoV-2 = format: cell-based
# [3] = system: SARS-CoV-2 mRNA (N, RdRp); format: cell-based; conditions: two gene targets (N, RdRp)
# SARS-CoV = format: cell-based; conditions: 24 h
compound,measurement,setting,value
"COc1ccc(CNCCc2ccccc2F)c(OCC(O)CN2CCN(C)CC2)c1 (stereo not drawn) [UMB18, 1-[2-({[2-(2-fluorophenyl)ethyl]amino}methyl)-5-methoxyphenoxy]-3-(4-methyl-1-piperazinyl)-2-propanol]",IC50,[1],~5 µM
same,IC50,[2],~16 µM
same,toxicity by CellTiter-Glo assay,A549 cells,minimal toxicity
same,NS1 protein by western blot,IAV NS1 protein,lack of NS1 protein
same,"10 μM treatment, Average","Influenza virus; 10 μM treatment, average of replicates",11250 and 1250 and 2000 and 18000
same,10 μM treatment,"Influenza virus; 10 μM treatment, replicate 2",12000 and 1000 and 35000
same,10 μM treatment,"Influenza virus; 10 μM treatment, replicate 3",1000 and 2000
same,10 μM treatment,"Influenza virus; 10 μM treatment, replicate 4",5000 and 1000
same,50 μM treatment Average,"Influenza virus; 50 μM compound, average of replicates",1000 and 333.3 and 0 (2×)
same,50 μM treatment,"Influenza virus; 50 μM compound, replicate 1, DMSO (0.5%) control run per batch",0
same,50 μM treatment,"Influenza virus; 50 μM compound, replicate 2",3000 and 0 (2×)
same,50 μM treatment (third value column),"Influenza virus; 50 μM compound, replicate 3",0 and 1000
same,50 μM treatment (fourth value column),"Influenza virus; 50 μM compound, replicate 4",1000
same,time of addition: inhibition of IAV when drug added 2 h after infection,Influenza virus,marked reduction in the level of inhibition
same,IC50,Influenza virus,~5 µM
same,antiviral activity against IAV infection,Influenza virus,showed antiviral activity against influenza
same,toxicity by CellTiter-Glo assay,Huh7 cells,minimal toxicity
same,IAV NS1 mRNA,IAV NS1 mRNA,marked reduction in mRNA
same,IC50,MERS-CoV,~5 µM
COc1ccc(CNCCc2ccccc2C)c(OCC(O)CN2CCN(C)CC2)c1 (stereo not drawn) [UMB18-2],IAV RNA amplified by M-RTPCR,IAV RNA,total loss of IAV RNA
same,inhibition of SARS-CoV-2 virus production by TCID50,SARS-CoV-2,capable of inhibiting virus production; also recorded: less so
same,NS1 protein by western blot,IAV NS1 protein,lack of NS1 protein
same,time of addition: inhibition of IAV when drug added 2 h after infection,Influenza virus,marked reduction in the level of inhibition
same,IC50,Influenza virus,~5 µM
same,antiviral activity against IAV infection,Influenza virus,capable of inhibiting IAV infection
same,SARS-CoV-2 mRNA production,[3],capable of inhibiting SARS-CoV-2 mRNA production
same,IAV NS1 mRNA,IAV NS1 mRNA,marked reduction in mRNA
same,IC50,MERS-CoV,~5 µM
same,inhibition of SARS-CoV,SARS-CoV; 10 μM,"inhibition, but to a lesser extent"
same,reduction in virus production,SARS-CoV; 50 μM,1 log
